Values joined by “and” are separate entries in the source; they are usually repeats but may differ in a detail not shown here. Equal values may be shown once. Inconclusive results are not listed.
Tested on: BDF1 mice, s.c. Lewis lung carcinoma, T/C %
Test: NCI In Vivo Anticancer Drug Screen. Data for tumor model Lewis Lung Carcinoma (subcutaneous) in B6D2F1 (BDF1) mice
How it was run: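 First, mice carry a transplantable tumor. Next, groups receive either compound or vehicle. Finally, survival or tumor dimensions in the dosed animals are divided by the corresponding control figure.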

[1] = endpoint: median survival time, dose: 0.5 mg/kg/injection, schedule: Q01DX009 (ip), vehicle: saline, higher = longer survival

With `CC1=CC2=C(C=O)C(=O)[C@](C)(O)[C@@H](O)C2=CO1` the T/C (endpoint: median survival time, dose: 1.56 mg/kg/injection, schedule: Q01DX009 (ip), vehicle: saline with Tween-80, higher = longer survival) was 115 % of control, the T/C (endpoint: median survival time, dose: 3.13 mg/kg/injection, schedule: Q01DX009 (ip), vehicle: saline with Tween-80, higher = longer survival) was 153 % of control and the T/C (endpoint: median survival time, dose: 6.25 mg/kg/injection, schedule: Q01DX009 (ip), vehicle: saline with Tween-80, higher = longer survival) was 89 % of control and 120 % of control. For the same compound, the T/C (endpoint: median survival time, dose: 12.5 mg/kg/injection, schedule: Q01DX009 (ip), vehicle: saline with Tween-80, higher = longer survival) was 109 % of control and the T/C (endpoint: median survival time, dose: 25.0 mg/kg/injection, schedule: Q01DX009 (ip), vehicle: saline with Tween-80, higher = longer survival) was 106 % of control.
In the case of `CCn1cnc2c(SC)nc(N)nc21`, the T/C (endpoint: mean tumor weight, dose: 100.0 mg/kg/injection, schedule: Q01DX011 (ip), vehicle: other, higher = larger tumour) is reported as 50 % of control, the T/C (endpoint: mean tumor weight, dose: 250.0 mg/kg/injection, schedule: Q01DX011 (ip), vehicle: other, higher = larger tumour) is reported as 60 % of control and the T/C (endpoint: mean tumor weight, dose: 500.0 mg/kg/injection, schedule: Q01DX011 (ip), vehicle: other, higher = larger tumour) is reported as 67 % of control. The T/C (endpoint: mean tumor weight, dose: 1000.0 mg/kg/injection, schedule: Q01DX011 (ip), vehicle: other, higher = larger tumour) was 42 % of control.
For `CCCCCCCCCCCC(c1ccccc1)[N+](C)(C)C` (configuration not stated), the T/C [1] was 102 % of control, the T/C (endpoint: median survival time, dose: 1.0 mg/kg/injection, schedule: Q01DX009 (ip), vehicle: saline, higher = longer survival) was 96 % of control and the T/C (endpoint: median survival time, dose: 2.0 mg/kg/injection, schedule: Q01DX009 (ip), vehicle: saline, higher = longer survival) was 93 % of control.
For `c1ccc2c3c(ccc2c1)Sc1ccc2ccccc2c1N3`, the T/C (endpoint: mean tumor weight, dose: 400.0 mg/kg/injection, schedule: Q01DX011 (ip), vehicle: other, higher = larger tumour) was 78 % of control, the T/C (endpoint: mean tumor weight, dose: 600.0 mg/kg/injection, schedule: Q01DX011 (ip), vehicle: other, higher = larger tumour) was 57 % of control and the T/C (endpoint: mean tumor weight, dose: 800.0 mg/kg/injection, schedule: Q01DX011 (ip), vehicle: other, higher = larger tumour) was 57 % of control.
For `Clc1[nH]nc2ccccc12`, the T/C (endpoint: mean tumor weight, dose: 125.0 mg/kg/injection, schedule: Q01DX011 (ip), vehicle: saline, higher = larger tumour) was 80 % of control and 85 % of control and the T/C (endpoint: mean tumor weight, dose: 250.0 mg/kg/injection, schedule: Q01DX011 (ip), vehicle: saline, higher = larger tumour) was 45 % of control and 67 % of control.
In the case of `Cc1cc(O)c2cc3c(O)c(O)ccc3cc2c1`, the T/C (endpoint: mean tumor weight, dose: 0.25 mg/kg/injection, schedule: Q01DX011 (ip), vehicle: saline, higher = larger tumour) is reported as 86 % of control, the T/C (endpoint: mean tumor weight, dose: 0.5 mg/kg/injection, schedule: Q01DX011 (ip), vehicle: saline, higher = larger tumour) is reported as 116 % of control and the T/C (endpoint: mean tumor weight, dose: 1.0 mg/kg/injection, schedule: Q01DX011 (ip), vehicle: saline, higher = larger tumour) is reported as 62 % of control. For the same compound, the T/C (endpoint: mean tumor weight, dose: 2.0 mg/kg/injection, schedule: Q01DX011 (ip), vehicle: saline, higher = larger tumour) was 31 % of control and 52 % of control and the T/C (endpoint: mean tumor weight, dose: 4.0 mg/kg/injection, schedule: Q01DX011 (ip), vehicle: saline, higher = larger tumour) was 36 % of control.
For `O=NN(CCCl)C(=O)Nc1ccc(I)cc1`, the T/C (endpoint: median survival time, dose: 3.12 mg/kg/injection, schedule: Q01DX009 (ip), vehicle: Klucel (hydroxypropylcellulose) (HPC), higher = longer survival) was 92 % of control, the T/C (endpoint: median survival time, dose: 6.25 mg/kg/injection, schedule: Q01DX009 (ip), vehicle: Klucel (hydroxypropylcellulose) (HPC), higher = longer survival) was 97 % of control and the T/C (endpoint: median survival time, dose: 12.5 mg/kg/injection, schedule: Q01DX009 (ip), vehicle: Klucel (hydroxypropylcellulose) (HPC), higher = longer survival) was 101 % of control. The T/C (endpoint: median survival time, dose: 50.0 mg/kg/injection, schedule: Q01DX009 (ip), vehicle: Klucel (hydroxypropylcellulose) (HPC), higher = longer survival) was 108 % of control.
`C=C(C)[C@H]1Cc2c(ccc3c2O[C@@H]2COc4cc(OC)c(OC)cc4[C@@H]2C3=O)O1` was tested, and the T/C (endpoint: mean tumor weight, dose: 0.25 mg/kg/injection, schedule: Q01DX011 (ip), vehicle: water, higher = larger tumour) was 76 % of control, the T/C (endpoint: mean tumor weight, dose: 0.5 mg/kg/injection, schedule: Q01DX011 (ip), vehicle: water, higher = larger tumour) was 65 % of control and the T/C (endpoint: mean tumor weight, dose: 1.0 mg/kg/injection, schedule: Q01DX011 (ip), vehicle: water, higher = larger tumour) was 60 % of control.
In the case of `C/C=C1\CNC2Cc3c([nH]c4ccccc34)C(=O)CC1C2C(=O)OC` (configuration not stated), the T/C (endpoint: mean tumor weight, dose: 25.0 mg/kg/injection, schedule: Q01DX011 (ip), vehicle: saline, higher = larger tumour) is reported as 88 % of control, the T/C (endpoint: mean tumor weight, dose: 50.0 mg/kg/injection, schedule: Q01DX011 (ip), vehicle: saline, higher = larger tumour) is reported as 97 % of control and the T/C (endpoint: mean tumor weight, dose: 100.0 mg/kg/injection, schedule: Q01DX011 (ip), vehicle: saline, higher = larger tumour) is reported as 84 % of control.
In the case of `COC1C(O)=C2C(=O)OC(C)(O)/C=C/C=C\C=C/C=C/C(c3ccccc3)NC(=O)/C=C/C=C/C=C/C=C/C2(C)C1O` (configuration not stated), the T/C (endpoint: median survival time, dose: 0.12 mg/kg/injection, schedule: Q01DX009 (ip), vehicle: saline, higher = longer survival) is reported as 92 % of control, the T/C (endpoint: median survival time, dose: 0.25 mg/kg/injection, schedule: Q01DX009 (ip), vehicle: saline, higher = longer survival) is reported as 95 % of control and the T/C [1] is reported as 100 % of control. For the same compound, the T/C (endpoint: median survival time, dose: 0.62 mg/kg/injection, schedule: Q01DX009 (ip), vehicle: saline, higher = longer survival) was 113 % of control and the T/C (endpoint: median survival time, dose: 2.5 mg/kg/injection, schedule: Q01DX009 (ip), vehicle: saline, higher = longer survival) was 91 % of control.

Source: PubChem BioAssay AID270 (DTP/NCI, 2004)
